Results as given in the Kinase Knowledgebase extract (Sharma et al. 2016).

Biological target: ROCK2 (human) (UniProt O75116)
Assay: Inhibition of ROCK2 Kinase Activity

Sequence of ROCK2 (human) (O75116 whole entry, looked up): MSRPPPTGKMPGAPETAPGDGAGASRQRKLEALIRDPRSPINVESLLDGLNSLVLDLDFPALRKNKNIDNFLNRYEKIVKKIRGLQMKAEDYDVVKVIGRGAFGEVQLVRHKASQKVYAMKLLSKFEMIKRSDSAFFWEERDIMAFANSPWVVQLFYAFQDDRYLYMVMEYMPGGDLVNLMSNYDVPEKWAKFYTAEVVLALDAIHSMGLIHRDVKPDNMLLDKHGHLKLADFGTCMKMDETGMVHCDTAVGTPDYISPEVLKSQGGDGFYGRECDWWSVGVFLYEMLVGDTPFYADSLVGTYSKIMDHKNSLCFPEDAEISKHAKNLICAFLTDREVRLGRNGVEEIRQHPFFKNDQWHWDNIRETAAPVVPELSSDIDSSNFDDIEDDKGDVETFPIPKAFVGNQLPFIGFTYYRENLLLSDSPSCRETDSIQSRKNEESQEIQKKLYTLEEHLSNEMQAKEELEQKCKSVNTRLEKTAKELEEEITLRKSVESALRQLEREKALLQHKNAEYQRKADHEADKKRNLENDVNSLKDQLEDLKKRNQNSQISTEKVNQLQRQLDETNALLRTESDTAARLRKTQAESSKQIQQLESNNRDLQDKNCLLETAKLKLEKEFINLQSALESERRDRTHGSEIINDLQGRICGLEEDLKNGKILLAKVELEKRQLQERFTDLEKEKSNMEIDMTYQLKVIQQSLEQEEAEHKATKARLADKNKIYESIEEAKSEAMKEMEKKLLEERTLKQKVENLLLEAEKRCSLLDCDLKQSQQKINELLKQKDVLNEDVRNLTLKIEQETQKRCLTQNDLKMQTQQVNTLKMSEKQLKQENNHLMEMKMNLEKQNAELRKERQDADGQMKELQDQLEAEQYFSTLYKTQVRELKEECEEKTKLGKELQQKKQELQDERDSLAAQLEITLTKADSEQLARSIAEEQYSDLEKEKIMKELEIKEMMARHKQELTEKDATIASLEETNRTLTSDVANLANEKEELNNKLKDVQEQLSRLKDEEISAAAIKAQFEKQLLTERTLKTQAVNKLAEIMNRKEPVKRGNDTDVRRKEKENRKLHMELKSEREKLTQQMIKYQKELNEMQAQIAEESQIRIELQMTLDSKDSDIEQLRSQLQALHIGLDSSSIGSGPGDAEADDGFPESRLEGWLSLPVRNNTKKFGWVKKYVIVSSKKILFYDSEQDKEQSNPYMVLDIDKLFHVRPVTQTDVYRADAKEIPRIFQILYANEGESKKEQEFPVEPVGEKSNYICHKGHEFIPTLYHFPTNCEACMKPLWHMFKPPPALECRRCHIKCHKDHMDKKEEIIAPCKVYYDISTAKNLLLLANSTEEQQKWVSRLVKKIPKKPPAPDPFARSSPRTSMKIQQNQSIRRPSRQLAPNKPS

Row | Structure (SMILES) | IC50
1 | NC(CNC(=O)c1c[nH]cn1)c1ccc(C(=O)Nc2ccncc2)cc1 (stereo unspecified) | 500 to 5000 nM
2 | CN(CC(N)c1ccc(C(=O)Nc2ccncc2)cc1)C(=O)C1CCSc2ccc(F)cc21 (stereo unspecified) | 5000 to 50000 nM
3 | Cc1ccc(C(=O)NCC(N)c2ccc(C(=O)Nc3ccncc3)cc2)s1 (stereo unspecified) | 500 to 5000 nM
4 | NC(c1ccc(C(=O)Nc2ccncc2)cc1)C1CCCN1C(=O)Cc1cccc2ccccc12 (stereo unspecified) | 500 to 5000 nM
5 | CN(CC(N)c1ccc(C(=O)Nc2ccncc2)cc1)C(=O)C1(c2ccc(F)cc2F)CC1 (stereo unspecified) | 500 to 5000 nM
6 | Cc1ccsc1C=NOCC(=O)NCC(N)c1ccc(C(=O)Nc2ccncc2)cc1 (stereo unspecified) | 500 to 5000 nM
7 | NC(CNC(=O)c1cccc(Oc2ccccc2)c1)c1ccc(C(=O)Nc2ccncc2)cc1 (stereo unspecified) | 500 to 5000 nM
8 | NC(CC(=O)NCc1cccc(C(F)(F)F)c1)c1ccc(C(=O)Nc2ccncc2)cc1 (stereo unspecified) | 50 to 500 nM
9 | NC(CC(=O)NCc1ccccn1)c1ccc(C(=O)Nc2ccncc2)cc1 (stereo unspecified) | 50 to 500 nM
10 | CN(CC(N)c1ccc(C(=O)Nc2ccncc2)cc1)C(=O)Cc1ccccc1F (stereo unspecified) | 500 to 5000 nM
11 | Cc1cccc(C(=O)NCC(N)c2ccc(C(=O)Nc3ccncc3)cc2)c1 (stereo unspecified) | 500 to 5000 nM
12 | CN(CC(N)c1ccc(C(=O)Nc2ccncc2)cc1)C(=O)C1CCc2ccccc21 (stereo unspecified) | 500 to 5000 nM
13 | NC(CNC(=O)Cc1ccccn1)c1ccc(C(=O)Nc2ccncc2)cc1 (stereo unspecified) | 500 to 5000 nM
14 | CC(=NOC(C)(C)C)c1ccc(C(=O)NCC(N)c2ccc(C(=O)Nc3ccncc3)cc2)s1 (stereo unspecified) | 500 to 5000 nM
15 | COc1ccc(Cl)cc1NC(=O)NCC(N)c1ccc(C(=O)Nc2ccncc2)cc1 (stereo unspecified) | 50 to 500 nM
16 | NC(CC(=O)NC1Cc2ccccc2C1)c1ccc(C(=O)Nc2ccncc2)cc1 (stereo unspecified) | 50 to 500 nM
17 | NC(CNC(=O)Cc1csc(-c2ccccc2)n1)c1ccc(C(=O)Nc2ccncc2)cc1 (stereo unspecified) | 50 to 500 nM
18 | NC(CNC(=O)C(c1ccccc1)C1CCCC1)c1ccc(C(=O)Nc2ccncc2)cc1 (stereo unspecified) | 500 to 5000 nM
19 | NC(CNC(=O)c1ccc2[nH]ccc2c1)c1ccc(C(=O)Nc2ccncc2)cc1 (stereo unspecified) | 50 to 500 nM
20 | NC(c1ccc(C(=O)Nc2ccncc2)cc1)C1CCCN1C(=O)C1(c2ccsc2)CC1 (stereo unspecified) | 500 to 5000 nM
21 | NC(CNC(=O)c1ccc(=O)[nH]n1)c1ccc(C(=O)Nc2ccncc2)cc1 (stereo unspecified) | 500 to 5000 nM
22 | NC(c1ccc(C(=O)Nc2ccncc2)cc1)C1CCCN1C(=O)C1CCSc2ccccc21 (stereo unspecified) | 500 to 5000 nM
23 | NC(CNC(=O)Cc1ccc(F)c(F)c1)c1ccc(C(=O)Nc2ccncc2)cc1 (stereo unspecified) | 50 to 500 nM
24 | CN(CC(N)c1ccc(C(=O)Nc2ccncc2)cc1)C(=O)C1(c2ccsc2)CC1 (stereo unspecified) | 500 to 5000 nM
25 | NC(c1ccc(C(=O)Nc2ccncc2)cc1)C1CCCN1C(=O)C1Cc2ccccc21 (stereo unspecified) | 50 to 500 nM
26 | NC(CNC(=O)c1cccc(Cn2cccn2)c1)c1ccc(C(=O)Nc2ccncc2)cc1 (stereo unspecified) | 500 to 5000 nM

Row | Structure (SMILES) | IC50
27 | CC[C@H](NC(=O)CC(N)c1ccc(C(=O)Nc2ccncc2)cc1)c1ccc(C)cc1 (stereo partly specified) | 50 to 500 nM
28 | NC(CC(=O)NC1CCN(Cc2ccccc2)CC1)c1ccc(C(=O)Nc2ccncc2)cc1 (stereo unspecified) | 50 to 500 nM
29 | NC(c1ccc(C(=O)Nc2ccncc2)cc1)C1CCCN1C(=O)Cc1c(Cl)cccc1Cl (stereo unspecified) | 500 to 5000 nM
30 | NC(CNC(=O)c1ccncc1)c1ccc(C(=O)Nc2ccncc2)cc1 (stereo unspecified) | 500 to 5000 nM
31 | COc1cc(Br)ccc1CCNC(=O)CC(N)c1ccc(C(=O)Nc2ccncc2)cc1 (stereo unspecified) | 50 to 500 nM
32 | NC(CC(=O)Nc1ccc(CO)cc1)c1ccc(C(=O)Nc2ccncc2)cc1 (stereo unspecified) | 50 to 500 nM
33 | NC(c1ccc(C(=O)Nc2ccncc2)cc1)C1CCCN1C(=O)C1(c2ccc(F)c(F)c2)CC1 (stereo unspecified) | 500 to 5000 nM
34 | CCNC(=O)CC(N)c1ccc(C(=O)Nc2ccncc2)cc1 (stereo unspecified) | 50 to 500 nM
35 | NC(CNC(=O)C1(c2cccs2)CC1)c1ccc(C(=O)Nc2ccncc2)cc1 (stereo unspecified) | 50 to 500 nM
36 | NC(CC(=O)NCc1ccc(F)cc1)c1ccc(C(=O)Nc2ccncc2)cc1 (stereo unspecified) | 50 to 500 nM
37 | NC(CNC(=O)C1(c2ccc(F)c(F)c2)CCC1)c1ccc(C(=O)Nc2ccncc2)cc1 (stereo unspecified) | 50 to 500 nM
38 | NC(c1ccc(C(=O)Nc2ccncc2)cc1)C1CCCN1C(=O)Cc1ccc(O)c([N+](=O)[O-])c1 (stereo unspecified) | 500 to 5000 nM
39 | CC1CC1C(=O)NCC(N)c1ccc(C(=O)Nc2ccncc2)cc1 (stereo unspecified) | 500 to 5000 nM
40 | NC(CC(=O)Nc1ccc2[nH]ccc2c1)c1ccc(C(=O)Nc2ccncc2)cc1 (stereo unspecified) | 50 to 500 nM
41 | NC(CNC(=O)C1(c2ccc(F)cc2F)CC1)c1ccc(C(=O)Nc2ccncc2)cc1 (stereo unspecified) | 50 to 500 nM
42 | CCNC(=S)NCC(N)c1ccc(C(=O)Nc2ccncc2)cc1 (stereo unspecified) | 500 to 5000 nM
43 | NC(CC(=O)NCCc1ccccc1)c1ccc(C(=O)Nc2ccncc2)cc1 (stereo unspecified) | 50 to 500 nM
44 | COCCC(=O)NCC(N)c1ccc(C(=O)Nc2ccncc2)cc1 (stereo unspecified) | 500 to 5000 nM
45 | CN(CC(N)c1ccc(C(=O)Nc2ccncc2)cc1)C(=O)Cc1ccc2ccccc2c1 (stereo unspecified) | 50 to 500 nM
46 | COc1ccc(CC(=O)N(C)CC(N)c2ccc(C(=O)Nc3ccncc3)cc2)cc1 (stereo unspecified) | 50 to 500 nM
47 | CCCCNNC(=O)CC(N)c1ccc(C(=O)Nc2ccncc2)cc1 (stereo unspecified) | 50 to 500 nM
48 | COc1ccc(CCNC(=O)CC(N)c2ccc(C(=O)Nc3ccncc3)cc2)cc1OC (stereo unspecified) | 500 to 5000 nM
49 | NC(CNC(=O)c1ccc([N+](=O)[O-])o1)c1ccc(C(=O)Nc2ccncc2)cc1 (stereo unspecified) | 500 to 5000 nM
50 | NC(c1ccc(C(=O)Nc2ccncc2)cc1)C1CCCN1C(=O)Cc1cccc(F)c1F (stereo unspecified) | 500 to 5000 nM
51 | COc1ccccc1CC(=O)NCC(N)c1ccc(C(=O)Nc2ccncc2)cc1 (stereo unspecified) | 500 to 5000 nM
